Our source for the IC50 values is US20250171462A1 (NICO Therapeutics, Inc., priority 2022, published 2025).

Molecules are shown by their SMILES. pIC50: −log10 of the molar value. Where two headings read alike, the source gives them in different places.

In this assay the target is T1, full-length SARM1 (FL-SARM1) (Homo sapiens, UniProt Q6SZW1).
T1 sequence (Q6SZW1 28-724): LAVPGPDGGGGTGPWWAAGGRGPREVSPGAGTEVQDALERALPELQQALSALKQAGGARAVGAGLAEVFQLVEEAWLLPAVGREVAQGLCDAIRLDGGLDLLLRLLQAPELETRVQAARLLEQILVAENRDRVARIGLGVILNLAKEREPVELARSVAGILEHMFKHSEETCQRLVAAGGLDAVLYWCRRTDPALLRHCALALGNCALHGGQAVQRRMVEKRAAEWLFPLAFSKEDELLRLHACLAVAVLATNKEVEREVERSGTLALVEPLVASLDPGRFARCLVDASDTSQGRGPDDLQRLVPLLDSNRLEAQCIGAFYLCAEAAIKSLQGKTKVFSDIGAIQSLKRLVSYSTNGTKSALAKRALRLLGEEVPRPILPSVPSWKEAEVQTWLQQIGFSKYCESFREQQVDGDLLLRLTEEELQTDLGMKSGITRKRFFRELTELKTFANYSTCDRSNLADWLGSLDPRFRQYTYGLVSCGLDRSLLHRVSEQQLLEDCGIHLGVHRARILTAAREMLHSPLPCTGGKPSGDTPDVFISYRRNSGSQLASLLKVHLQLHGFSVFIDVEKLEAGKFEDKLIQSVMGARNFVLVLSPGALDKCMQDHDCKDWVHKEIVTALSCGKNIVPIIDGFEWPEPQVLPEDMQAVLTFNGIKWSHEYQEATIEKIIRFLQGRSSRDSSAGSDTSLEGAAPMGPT
Briefly: FL-SARM1 cellular lysate assay (NAD/NADH-Glo detection of remaining NAD+, NMN-activated). The settings on record: for IC50: Activity (μM) (IC50).

Where [1] appears, read: read-out: Activity (IC50 class), 11 point curve.
Setting [2] is: Activity (IC50 class), 11 point curve.

Description: Preparation of full-length SARM1 (FL-SARM1) lysate: HEK293T cells (ATCC: CRL-3216) were grown on 150 mm TC-treated dishes to 80-90% confluency in complete DMEM (DMEM (Thermo Fisher: 11965175) supplemented with 10% HI—FBS (VWR: 10802-772), 1× Pen/Strep (Thermo Fisher: 15140122), 1×NEAA (Thermo Fisher: 1140050), 1× glutamax (Thermo Fisher: 35050061), and 1 mM sodium pyruvate (Thermo Fisher: 11360070)) at 37° C. and 5% CO2. One hour prior to transfection, the media was replaced with fresh, 37° C. complete DMEM (20 mL per one 150 mm dish) supplemented with additional 10 mM glucose (Alfa Aesar AAJ60067EQE). Per one 150 mm dish, 30 μg FL-SARM1 (SEQ. ID. 1; cloned in-house) plasmid was dissolved in 1 mL DMEM at ambient temperature and were mixed by inverting the tube 8-10 times. 90 μL of GenJet™ in vitro DNA transfection reagent (Ver2) was dissolved in 1 mL DMEM at ambient temperature and were mixed by inverting the tube 8-10 times. The plasmid and transfection agent solutions were combined, mixed by 8-10 inversions and incubated for 10 minutes at ambient temperature. 2 mL of this transfection mixture was added to each dish containing HEK293T cells as prepared above followed by a gentle mixing of 4-5 horizontal rotations. The dishes were incubated at 37° C. and 5% CO2 for 24 h. The dishes were removed from the incubator, the medium was aspirated and the cells were scraped off using cell scrapers in ice-cold 1×PBS (5 mL/dish, Thermo Fisher Scientific 10010023). The collected cells were centrifuged at 300 g for 5 minutes at 4° C. The supernatant was aspirated and the pellet was frozen at −80° C. until needed. The cell pellet from 30 dishes was dissolved in 30 mL 1×PBS supplemented with 4 tablets of Complete, Mini EDTA-free protease inhibitor cocktail at 4° C. This mixture was sonicated on ice for 10 minutes at 50% amplitude with a 1 second on/1 second off interval using a Model 120 sonicator (Thermo Fisher Scientific, FB120110). The lysate was centrifuged at 16000 g for 10 minutes at 4° C.
To a white 384-well Proxiplate (PerkinElmer, PE-6008280) was added 50 nL/well of a DMSO solution containing test compounds followed by 7.5 μL/well of a 0.067 mg/mL solution of SARMi cellular lysate in reaction buffer (DPBS containing CHAPSO (0.1%) and fatty acid free BSA (0.032%)). The plate was centrifuged for 1 minute at 1000 RPM and then placed in an incubator at 23° C. for 15 minutes. To the wells were added 2.5 μL/well of a solution containing 40 M NAD^+ and 4 mM nicotinamide mononucleotide (NMN) in reaction buffer. The plate was centrifuged for 1 min at 1000 RPM, the plate was sealed and placed in an incubator at 23° C. for 3.5 hours before adding 3.5 μL/well of NAD/NADH-Glo™ solution (preparation as described by Promega using the extended detection protocol). The plate was centrifuged for 1 minute at 1000 RPM and then incubated at 23° C. for 20 minutes. 1 μL/well of a 3.625 mM solution of menadione in DMSO was added and the plate was centrifuged for 1 minute at 1000 RPM. Relative light units (RLU) were recorded using an Envision plate reader at a height of 6.5 mm.
IC50 values were calculated from an 11 point curve using ½ log dilutions using a four-parameter logistic regression curve fit.

Regarding `O=C(Nc1ccc(C(F)(F)F)c(-c2ncc(F)cn2)c1)C1C2CCC1CC2` (stereo not shown) [Example 303, N-(3-(5-fluoropyrimidin-2-yl)-4-(trifluoromethyl)phenyl) bicyclo[2.2.1]heptane-e-7-carboxamide], inhibition (11 point curve) was half-maximal at 0.5 µM (IC50). For the same molecule, the pIC50 (commonly the negative decadic logarithm of the IC50, by convention in mol/L) under setting [1] is 6.00 to 10.00.

On to `Cc1ccc(NC(=O)N2C3CCCC2CC3)cc1-c1ccc(F)cn1` [Example 14, N-(3-(5-fluoropyridin-2-yl)-4-methylphenyl)-8-azabicyclo[3.2.1]octane-8-carboxamide], for which 0.1 µM corresponded to half-maximal inhibition (11 point curve) (IC50). In addition, the pIC50 under setting [1] is 6.00 to 10.00.

In the case of `CCOC(C)[C@@]12CC(C[C@@H](C)C1)N2C(=O)Nc1ccc(C)c(-c2ncc(F)cn2)c1` (single isomer, unassigned) [Example 187, cis-1-(1-ethoxyethyl)-N-(3-(5-fluoropyrimidin-2-yl)-4-methylphenyl)-3-methyl-6-azabicyclo[3.1.1]heptane-6-carboxamide], where the note is “11 point curve”, the IC50 – broadly, the midpoint of a concentration-inhibition curve – turned out to be 0.2 µM. Under setting [1], the negative-log IC50 (pIC50) is 6.00 to 10.00.

With `Cc1ccc(NC(=O)[C@H]2C[C@H]3C[C@H]3N2)cc1-c1ncc(F)cn1` [Example 170, (1R,3R,5R)—N-(3-(5-fluoropyrimidin-2-yl)-4-methylphenyl)-2-azabicyclo[3.1.0]hexane-3-carboxamide], the pIC50 under setting [2] is 5.00 to 6.00. Besides, half-maximal inhibition (11 point curve) (IC50) required 2.7 µM.

Turning to `Cc1ccc(NC(=O)[C@@H]2CC2(F)F)cc1-c1ccc(C(F)(F)F)cn1` [Example 154, (1S)-2,2-difluoro-N-[4-methyl-3-[5-(trifluoromethyl)pyridin-2-yl]phenyl]cyclopropane-1-carboxamide], the pIC50 under setting [2] is 5.00 to 6.00. Besides, for the setting “11 point curve”, the IC50 was 9.9 µM.

`Cc1nnc(C2CCCN2C(=O)Nc2ccc(C)c(-c3ccccn3)c2)o1` (racemic) [Example 87, 2-(5-methyl-1,3,4-oxadiazol-2-yl)-N-(4-methyl-3-pyridin-2-ylphenyl)pyrrolidine-1-carboxamide]: the pIC50 under setting [2] is less than 5.00. Under “11 point curve”, this molecule returned an IC50 of 17 µM.

`Cc1ccc(NC(=O)[C@H]2C[C@@H]2C(F)(F)F)cc1-c1ccccn1` (racemic) [Example 128, trans-N-(4-methyl-3-pyridin-2-ylphenyl)-2-(trifluoromethyl)cyclopropane-1-carboxamide] gave a negative logarithm of the IC50 (pIC50) under setting [2] of 5.00 to 6.00. Under “11 point curve”, this molecule displayed an IC50 of 4.3 µM.

In turn, `Cc1cnc(-c2cc(NC(=O)N3C4C[C@@H](C)C[C@H]3C4)c(F)cc2C)nn1` [Example 239, cis-N-[2-fluoro-4-methyl-5-(6-methyl-1,2,4-triazin-3-yl)phenyl]-3-methyl-6-azabicyclo[3.1.1]heptane-6-carboxamide] came in with an IC50 (11 point curve) of 0.2 µM. In addition, the pIC50 under setting [1] was 6.00 to 10.00.

Under setting [2], `Cc1ccc(NC(=O)[C@@H]2C[C@@H]2C2CC2)cc1-c1cccnn1` (racemic) [Example 284, cis-2-cyclopropyl-N-(4-methyl-3-pyridazin-3-ylphenyl)cyclopropane-1-carboxamide] showed a pIC50 of 5.00 to 6.00. Under “11 point curve”, this molecule yielded an IC50 of 1.8 µM.

`Cc1ccc(NC(=O)N2C3C[C@@H](C)C[C@H]2C3)cc1-c1cc(F)ccn1` [Example 224, cis-N-[3-(4-fluoropyridin-2-yl)-4-methylphenyl]-3-methyl-6-azabicyclo[3.1.1]heptane-6-carboxamide] yielded an IC50 (11 point curve) of 0.04 µM. Under setting [1], the pIC50 was 6.00 to 10.00.

With `Cc1ccc(NC(=O)C2CC3CCC2C3)cc1-c1ccccn1` (stereo not shown) [Example 147, N-(4-methyl-3-pyridin-2-ylphenyl)bicyclo[2.2.1]heptane-2-carboxamide], 0.2 µM corresponded to half-maximal inhibition (11 point curve) (IC50). The pIC50 under setting [1] was 6.00 to 10.00.

Turning to `Cc1ccc(NC(=O)[C@H]2[C@@H]3CC[C@@H](C3)N2c2ncccn2)cc1-c1ncc(F)cn1` [Example 322], the pIC50 under setting [2] is less than 5.00. This molecule also had an IC50 (11 point curve) of 13 µM.

`Cc1ccc(NC(=O)N2C3C[C@@H](C)C[C@H]2C3)cc1-c1cccnn1` [Example 62, cis-3-methyl-N-(4-methyl-3-pyridazin-3-yl-phenyl)-6-azabicyclo[3.1.1]heptane-6-carboxamide] yielded an IC50 (11 point curve) of 0.02 µM. The pIC50 under setting [1] was 6.00 to 10.00.

Under “11 point curve”, `Cc1ccc(NC(=O)N2C3C[C@@H]2CC[C@H]3C)cc1-c1ccccn1` (single isomer, unassigned) [Example 49, trans-2-methyl-N-(4-methyl-3-(pyridin-2-yl)phenyl)-6-azabicyclo[3.1.1]heptane-6-carboxamide] gave an IC50 of 0.2 µM. The pIC50 under setting [1] was 6.00 to 10.00.

Molecule `Cc1ccc(NC(=O)N2CC3CC2c2ccccc2O3)cc1-c1ccccn1` (stereo not shown) [Example 24, N-(4-methyl-3-(pyridin-2-yl)phenyl)-2,3-dihydro-2,5-methanobenzo[f][1,4]oxazepine-4(5H)-carboxamide] showed a pIC50 under setting [2] of 5.00 to 6.00. Besides, half-maximal inhibition (11 point curve) (IC50) required 1.4 µM.

Take `Cc1ccc(NC(=O)N2CC3CC(C)C2C3)cc1-c1ccccn1` (single isomer, unassigned) [Example 12, 6-methyl-N-(4-methyl-3-(pyridin-2-yl)phenyl)-2-azabicyclo[2.2.1]heptane-2-carboxamide]: the pIC50 under setting [2] was 5.00 to 6.00. The molecule also gave an IC50 (11 point curve) of 2 µM.

On to `O=C(Nc1ccc(C(F)F)c(-c2ccccn2)c1)[C@@H]1CC1(F)F` [Example 126, (1S)-N-[4-(difluoromethyl)-3-pyridin-2-ylphenyl]-2,2-difluorocyclopropane-1-carboxamide], for which, under setting [2], the pIC50 was 5.00 to 6.00. Also, for the setting “11 point curve”, 2.5 µM corresponded to half-maximal inhibition (IC50).

Under “11 point curve”, `Cc1ccc(NC(=O)N2[C@@H]3C[C@@H](C)C[C@H]2C3)cc1-c1nccnc1F` [Example 230, cis-N-[3-(3-fluoropyrazin-2-yl)-4-methylphenyl]-3-methyl-6-azabicyclo[3.1.1]heptane-6-carboxamide] had an IC50 of 0.04 µM. Further, the pIC50 under setting [1] is 6.00 to 10.00.

The molecule `COc1cnnc(-c2cc(NC(=O)N3C4CCCC3C4)c(F)cc2C)c1` [Example 249, N-[2-fluoro-5-(5-methoxypyridazin-3-yl)-4-methylphenyl]-6-azabicyclo[3.1.1]heptane-6-carboxamide] had an IC50 (11 point curve) of 0.9 µM. Moreover, the pIC50 under setting [1] was 6.00 to 10.00.

In the case of `Cc1ccc(NC(=O)N2C3C[C@H](O)C[C@H]2C3)cc1-c1ccccn1` [Example 39, trans-3-hydroxy-N-(4-methyl-3-(pyridin-2-yl)phenyl)-6-azabicyclo[3.1.1]heptane-6-carboxamide], the negative logarithm of the IC50 (pIC50) under setting [2] is 5.00 to 6.00. Where the note is “11 point curve”, this molecule registered an IC50 of 3.8 µM.

Molecule `COC(C)[C@@]12CC(C[C@@H](C)C1)N2C(=O)Nc1ccc(C)c(-c2ncc(F)cn2)c1` (stereo partly drawn) [Example 190, cis-N-(3-(5-fluoropyrimidin-2-yl)-4-methylphenyl)-1-(1-methoxyethyl)-3-methyl-6-azabicyclo[3.1.1]heptane-6-carboxamide] came in with an IC50 (11 point curve) of 0.2 µM. Further, under setting [1], the pIC50 was 6.00 to 10.00.

On to `O=C(Nc1ccc(C(F)(F)F)c(-c2ccccn2)c1)N1C2CCCC1C2` [Example 18, N-(3-(pyridin-2-yl)-4-(trifluoromethyl)phenyl)-6-azabicyclo[3.1.1]heptane-6-carboxamide], for which, for the setting “11 point curve”, the IC50 amounted to 0.3 µM. For the same molecule, under setting [1], the pIC50 is 6.00 to 10.00.

For `CCc1ccc(-c2cc(NC(=O)N3C4C[C@@H](C)C[C@H]3C4)ccc2C)nn1` [Example 234, cis-N-[3-(6-ethylpyridazin-3-yl)-4-methylphenyl]-3-methyl-6-azabicyclo[3.1.1]heptane-6-carboxamide], the IC50 (11 point curve) turned out to be 0.4 µM. For the same molecule, the pIC50 under setting [1] was 6.00 to 10.00.
